System: Ndufs4-KO mouse model of Leigh syndrome
Assay: Survival study in Ndufs4-KO mouse model of Leigh syndrome
Type: in vivo
Details: Ndufs4-KO mice
Description: Study design. A survival study was performed to test Compound 4 in a whole body (WB)-Ndufs4-KO mouse model of Leigh syndrome (B6.129S4-Ndufs4^tm1.1Rpa/J; JAX Stock #027058; “Ndufs4-KO mice”). Defects in the non-enzymatic, nuclear-encoded protein, NDUFS4 (NADH dehydrogenase (ubiquinone) Fe—S protein 4), cause a Leigh-like phenotype in humans that results in death within 3-16 months after birth. Exon 2 of the mouse Ndufs4 gene has been excised in this knockout allele. Three groups of mice were included in this study: (1) wild-type (WT) C57BL/6J mice (n=12), each receiving 20 mg/kg Compound 4 subcutaneously once per day starting at postnatal age 21 days (P21); (2) Ndufs4-KO mice (homozygous knock outs (“HOM”)) (“HOM Vehicle”) (n=9), each receiving vehicle (5% Kolliphor-ELP in 1×PBS at a dosage of 10 mL/kg/day) subcutaneously once per day starting at P21; and (3) Ndufs4-KO mice (“HOM Comp. 4, 20 mg/kg”) (n=13), each receiving 20 mg/kg Compound 4 subcutaneously per day starting at P21. All studies were performed under the approved IACUC protocol at Jackson Laboratories (Bar Harbor, ME). The mice were sacrificed and necropsied upon reaching a humane endpoint as determined by body conditioning and neurological scoring method developed by Jackson Laboratory for this animal model. Terminal plasma was collected via cardiocentesis post euthanasia for future analysis.
Statistical analysis. Kaplan Meier plot followed by chi squared test were performed using GraphPad Prism version 10.0.0, GraphPad Software (Boston, Massachusetts) (www.graphpad.com).

## CC1=C(C)C(=O)C(CC[C@](C)(O)CCCCCCCCC(F)(F)F)=C(C)C1=O [Compound 4]
20 mg/kg SC daily from P21
  effect on survival, Gehan Breslow-Wilcoxon test P: < 0.0001
  effect on survival, logrank test P: < 0.0001
20 mg/kg SC once per day from P21, vs vehicle, FIG. 23
  survival: significantly improved survival

Source: US20250144049A1, “METHODS, COMPOSITIONS, AND USES RELATED TO THE TREATMENT AND PREVENTION OF LEIGH SYNDROME” (Stealth BioTherapeutics Inc., priority 2023, published 2025)
